Data from patent US9023821B2, “Use of MicroRNA for treating diseases associated with a dysfunction of the cilia in multiciliated epithelial cells” (Centre National de la Recherche Scientifique, priority 2009, dated 2015).

What was measured:
[1] = system: human airway epithelial cells (HAECs); test: High-throughput sequencing (HTS) of miRNAs at four stages of differentiation of HAECs; conditions: for Modulation (ratio of the level of intensity of expression in log2 in two stages of differentiation) measured by high-throughput sequencing, D7 − D0 / Modulation (ratio of the level of intensity of expression in log2 in two stages of differentiation) measured by high-throughput sequencing, FC − D7 / Modulation (ratio of the level of intensity of expression in log2 in two stages of differentiation) measured by high-throughput sequencing, WD − D0 / Modulation (ratio of the level of intensity of expression in log2 in two stages of differentiation) measured by high-throughput sequencing, WD − FC / Level of intensity of expression in log2 measured by high-throughput sequencing, D0 / Level of intensity of expression in log2 measured by high-throughput sequencing, D7 / Level of intensity of expression in log2 measured by high-throughput sequencing, FC / Level of intensity of expression in log2 measured by high-throughput sequencing, WD: Table VI; for Level of intensity of expression in log2 At the differentiated stage (WD) measured in HTS: healthy human airway epithelial tissue; for Level of intensity of expression in log2 measured by high-throughput sequencing, D0: stage D0; for Level of intensity of expression in log2 measured by high-throughput sequencing, D7: stage D7; for Level of intensity of expression in log2 measured by high-throughput sequencing, FC: stage FC; for Level of intensity of expression in log2 At the differentiated stage (WD) measured in HTS / Level of intensity of expression in log2 measured by high-throughput sequencing, WD: stage WD; for Modulation (ratio of the level of intensity of expression in log2 in two stages of differentiation), D7 − D0 / Modulation (ratio of the level of intensity of expression in log2 in two stages of differentiation), FC − D7 / Modulation (ratio of the level of intensity of expression in log2 in two stages of differentiation), WD − FC / Abundance (%), D0 / Abundance (%), D7 / Abundance (%), FC / Abundance (%), WD: HTS; for Abundance (%), D0: ALI-D0; for Abundance (%), D7: ALI-D7; for Abundance (%), FC: ALI-FC; for Abundance (%), WD: ALI-WD
Summary of the method: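 Reads per 5p and 3p strand scaled to 10^6 sequences, then to percentage abundance; linear model plus empirical Bayes normalization. Retained miRNAs exceeded 1% of total in at least one condition, with |Log2 Ratio| below 0.5 and adjusted P-value below 0.05.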

[2] = system: human airway epithelial cells (HAECs); test: Agilent miRNA chips, miRNA expression at four stages of differentiation of HAECs; conditions: for Modulation (ratio of the level of intensity of expression in log2 in two stages of differentiation) measured with the Agilent chips, D7 − D0 / Modulation (ratio of the level of intensity of expression in log2 in two stages of differentiation) measured with the Agilent chips, FC − D7 / Modulation (ratio of the level of intensity of expression in log2 in two stages of differentiation) measured with the Agilent chips, WD − D0 / Modulation (ratio of the level of intensity of expression in log2 in two stages of differentiation) measured with the Agilent chips, WD − FC / Level of intensity of expression in log2 measured with the Agilent chips, D0 / Level of intensity of expression in log2 measured with the Agilent chips, D7 / Level of intensity of expression in log2 measured with the Agilent chips, FC / Level of intensity of expression in log2 measured with the Agilent chips, WD: Table VI; for Modulation (ratio of the level of intensity of expression in log2 at two stages of differentiation), FC − D7 / Modulation (ratio of the level of intensity of expression in log2 at two stages of differentiation), WD − FC: Agilent miRNA chips, Table V; for Level of intensity of expression in log2 measured with the Agilent chips, D0: stage D0; for Level of intensity of expression in log2 measured with the Agilent chips, D7: stage D7; for Level of intensity of expression in log2 measured with the Agilent chips, FC: stage FC; for Level of intensity of expression in log2 measured with the Agilent chips, WD: stage WD
Summary of the method: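 RNA from the same patients used for small-RNA sequencing was labelled and hybridized to a Human miRNA Microarray v2 (866 human and 89 human viral miRNAs, covering miRBase v.12.0) with the kit's labelling and hybridization protocol, giving miRNA expression profiles to compare against the sequencing data.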

[3] = system: basal cells and pyramidal cells of the airway epithelium; test: miRNA expression in sorted basal cells versus pyramidal cells (ciliated + secretory), HTS and Agilent chips; set-up: species or system human; conditions: for Modulation of expression of the miRNAs in pyramidal cells (323(−)) relative to basal cells 323(+): HTS and Agilent chips; for Intensity of the level of expression in log2 in pyramidal cells (323(−)): pyramidal cells (ciliated + secretory)
Summary of the method: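 Nasal polyp or concha epithelial cells from 3 donors were stained with CD151-PE and anti-tissue factor-FITC for 20 min at 4° C, with DAPI excluding damaged cells. CD151+/TF+ basal and CD151−/TF− ciliated/secretory cells were FACS-sorted; total RNA miRNA profiles came from Agilent chips or high-throughput sequencing.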

| Substance | Modulation (ratio of the level of intensity of expression in log2 in two stages of differentiation) measured by high-throughput sequencing, D7 − D0 [1] [log2] | Modulation (ratio of the level of intensity of expression in log2 in two stages of differentiation) measured by high-throughput sequencing, FC − D7 [1] [log2] | Modulation (ratio of the level of intensity of expression in log2 in two stages of differentiation) measured by high-throughput sequencing, WD − D0 [1] [log2] | Modulation (ratio of the level of intensity of expression in log2 in two stages of differentiation) measured by high-throughput sequencing, WD − FC [1] [log2] | Level of intensity of expression in log2 At the differentiated stage (WD) measured in HTS [1] [log2] | Level of intensity of expression in log2 measured by high-throughput sequencing, D0 [1] [log2] | Level of intensity of expression in log2 measured by high-throughput sequencing, D7 [1] [log2] | Level of intensity of expression in log2 measured by high-throughput sequencing, FC [1] [log2] | Level of intensity of expression in log2 measured by high-throughput sequencing, WD [1] [log2] | Modulation (ratio of the level of intensity of expression in log2 in two stages of differentiation) measured with the Agilent chips, D7 − D0 [2] [log2] | Modulation (ratio of the level of intensity of expression in log2 in two stages of differentiation) measured with the Agilent chips, FC − D7 [2] [log2] | Modulation (ratio of the level of intensity of expression in log2 in two stages of differentiation) measured with the Agilent chips, WD − D0 [2] [log2] | Modulation (ratio of the level of intensity of expression in log2 in two stages of differentiation) measured with the Agilent chips, WD − FC [2] [log2] | Level of intensity of expression in log2 measured with the Agilent chips, D0 [2] [log2] | Level of intensity of expression in log2 measured with the Agilent chips, D7 [2] [log2] | Level of intensity of expression in log2 measured with the Agilent chips, FC [2] [log2] | Level of intensity of expression in log2 measured with the Agilent chips, WD [2] [log2] | Modulation of expression of the miRNAs in pyramidal cells (323(−)) relative to basal cells 323(+) [3] | Intensity of the level of expression in log2 in basal cells (323(+)) [3] [log2] | Intensity of the level of expression in log2 in pyramidal cells (323(−)) [3] [log2] | further results |
| --- | --- | --- | --- | --- | --- | --- | --- | --- | --- | --- | --- | --- | --- | --- | --- | --- | --- | --- | --- | --- | --- |
| hsa-miR-27b: human miRNA, SEQ ID No. 30 (UUCACAGUGGCUAAGUUCUGC; expressed or natural sequence; listed as Homo sapiens) | 0.64 | −0.69 | −0.11 | −0.06 | 14.81 | 6.92 | 7.57 | 6.88 | 6.81 | 1.77 | −0.47 | 1.36 | 0.05 | 9.26 | 11.03 | 10.57 | 10.62 | −3.56 | 9.77 | 6.21 | Modulation (ratio of the level of intensity of expression in log2 at two stages of differentiation), FC − D7 [2]: −0.47 log2; Modulation (ratio of the level of intensity of expression in log2 at two stages of differentiation), WD − FC [2]: 0.05 log2 |
| hsa-miR-29a: human miRNA, SEQ ID No. 31 (UAGCACCAUCUGAAAUCGGUUA; expressed or natural sequence; listed as Homo sapiens) | −1.34 | −0.11 | −1.43 | 0.02 | 14.53 | 16.24 | 14.90 | 14.79 | 14.81 | 0.17 | −0.71 | −0.38 | 0.16 | 11.23 | 11.40 | 10.69 | 10.85 | −2.95 | 11.09 | 8.14 | Modulation (ratio of the level of intensity of expression in log2 in two stages of differentiation), D7 − D0 [1]: −1.34 log2; Modulation (ratio of the level of intensity of expression in log2 in two stages of differentiation), FC − D7 [1]: −0.11 log2; Modulation (ratio of the level of intensity of expression in log2 in two stages of differentiation), WD − FC [1]: 0.02 log2; Abundance (%), D0 [1]: 17.01%; Abundance (%), D7 [1]: 6.72%; Abundance (%), FC [1]: 6.02%; Abundance (%), WD [1]: 4.64% |
| hsa-miR-29c: human miRNA, SEQ ID No. 32 (UAGCACCAUUUGAAAUCGGUUA; expressed or natural sequence; listed as Homo sapiens) | 0.82 | 0.02 | 0.87 | 0.03 | 9.74 | 13.66 | 14.48 | 14.50 | 14.53 | 1.61 | −0.28 | 1.57 | 0.24 | 9.04 | 10.66 | 10.38 | 10.62 | −3.06 | 11.06 | 8.00 | Modulation (ratio of the level of intensity of expression in log2 in two stages of differentiation), D7 − D0 [1]: 0.82 log2; Modulation (ratio of the level of intensity of expression in log2 in two stages of differentiation), FC − D7 [1]: 0.02 log2; Modulation (ratio of the level of intensity of expression in log2 in two stages of differentiation), WD − FC [1]: 0.03 log2; Abundance (%), D0 [1]: 2.84%; Abundance (%), D7 [1]: 5.03%; Abundance (%), FC [1]: 4.95%; Abundance (%), WD [1]: 3.82%; Modulation (ratio of the level of intensity of expression in log2 at two stages of differentiation), FC − D7 [2]: −0.28 log2; Modulation (ratio of the level of intensity of expression in log2 at two stages of differentiation), WD − FC [2]: 0.24 log2 |
| hsa-miR-30b: human miRNA, SEQ ID No. 33 (UGUAAACAUCCUACACUCAGCU; expressed or natural sequence; listed as Homo sapiens) | 0.83 | −0.27 | 1.24 | 0.68 | 0.01 | 8.50 | 9.33 | 9.06 | 9.74 | 2.36 | 0.05 | 2.55 | 0.15 | 7.62 | 9.98 | 10.03 | 10.17 | −0.80 | 8.76 | 7.96 | Modulation (ratio of the level of intensity of expression in log2 at two stages of differentiation), FC − D7 [2]: 0.05 log2; Modulation (ratio of the level of intensity of expression in log2 at two stages of differentiation), WD − FC [2]: 0.15 log2 |
